# Test results reported in PubChem BioAssay (NCI).
#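 Step 1: Grow cells in 96-well plates. Step 2: Expose to compound for 48 hours at 5 concentrations. Step 3: Interpolate endpoints linearly; if unreached, use highest concentration. The concentration for full growth arrest is given as TGI.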
# Legend:
# Experiment in all cases: inhibition of tumour cell growth, NCI panel, 48 h
# [1] = system: UACC-257 melanoma
# [2] = system: RXF 393 renal
# [3] = system: DU-145 prostate
# [4] = system: SF-268 CNS
# [5] = system: UACC-62 melanoma
# [6] = system: OVCAR-8 ovarian
# [7] = system: LOX IMVI melanoma
# [8] = system: EKVX NSCLC
# [9] = system: NCI-H226 lung
# [10] = system: HCC-2998 colon
# [11] = system: M14 melanoma
# [12] = system: RPMI-8226 leukemia
# [13] = system: 786-0 renal
# [14] = system: OVCAR-4 ovarian
# [15] = system: SF-539 CNS
# [16] = system: SK-MEL-28 melanoma
# [17] = system: HT29 colon
# [18] = system: MOLT-4 leukemia
# [19] = system: HS 578T breast
# [20] = system: NCI-H460 lung
# [21] = system: SK-MEL-2 melanoma
# [22] = system: HCT-116 colon
# [23] = system: CCRF-CEM leukemia
# [24] = system: SR leukemia
# [25] = system: BT-549 breast
# [26] = system: K-562 leukemia
# [27] = system: MCF7 breast
# [28] = system: NCI-H522 lung
# [29] = system: TK-10 renal
# [30] = system: MDA-MB-435
# [31] = system: U251 CNS
# [32] = system: IGROV1 ovarian
# [33] = system: A498 renal
# [34] = system: HOP-92 NSCLC
# [35] = system: OVCAR-5 ovarian
# [36] = system: MDA-MB-231 breast
# [37] = system: UO-31 renal
# [38] = system: PC-3 prostate
# [39] = system: CAKI-1 renal
# [40] = system: SNB-19 CNS
# [41] = system: A549 NSCLC
# [42] = system: SF-295 CNS
# [43] = system: COLO 205 colon
# [44] = system: HCT-15 colon
# [45] = system: HOP-62 NSCLC
# [46] = system: MDA-N
# [47] = system: SK-MEL-5 melanoma
# [48] = system: OVCAR-3 ovarian
# [49] = system: ACHN renal
# [50] = system: SW-620 colon
# [51] = system: NCI/ADR-RES ovarian
# [52] = system: KM12 colon
# [53] = system: SN12C renal
# [54] = system: NCI-H23 lung
# [55] = system: MALME-3M melanoma
# [56] = system: HL-60(TB) leukemia
# [57] = system: SK-OV-3 ovarian
# [58] = system: SNB-75 CNS
structure (smiles),measurement,setting,value
CC(=O)Oc1ccc(/C=C/C(=O)NCC(NC(=O)/C=C/c2ccc(OC(C)=O)c(OC(C)=O)c2)C(=O)O)cc1OC(C)=O (stereo not given),TGI,[1],> 100 µM
same,TGI,[2],> 100 µM
same,TGI,[3],> 100 µM
same,TGI,[4],> 100 µM
same,TGI,[5],> 100 µM
same,TGI,[6],> 100 µM
same,TGI,[7],> 100 µM
same,TGI,[8],> 100 µM
same,TGI,[9],> 100 µM
same,TGI,[10],> 100 µM
same,TGI,[11],> 100 µM
same,TGI,[12],> 100 µM
same,TGI,[13],> 100 µM
same,TGI,[14],> 100 µM
same,TGI,[15],> 100 µM
same,TGI,[16],> 100 µM
same,TGI,[17],> 100 µM
same,TGI,[18],50.1 µM
same,TGI,[19],> 100 µM
same,TGI,[20],> 100 µM
same,TGI,[21],> 100 µM
same,TGI,[22],> 100 µM
same,TGI,[23],> 100 µM
same,TGI,[24],> 100 µM
same,TGI,[25],> 100 µM
same,TGI,[26],> 100 µM
same,TGI,[27],> 100 µM
same,TGI,[28],> 100 µM
same,TGI,[29],> 100 µM
same,TGI,[30],> 100 µM
same,TGI,[31],> 100 µM
same,TGI,[32],> 100 µM
same,TGI,[33],> 100 µM
same,TGI,[34],> 100 µM
same,TGI,[35],> 100 µM
same,TGI,[36],> 100 µM
same,TGI,[37],> 100 µM
same,TGI,[38],> 100 µM
same,TGI,[39],> 100 µM
same,TGI,[40],> 100 µM
same,TGI,[41],> 100 µM
same,TGI,[42],> 100 µM
same,TGI,[43],> 100 µM
same,TGI,[44],> 100 µM
same,TGI,[45],> 100 µM
same,TGI,[46],> 100 µM
same,TGI,[47],> 100 µM
same,TGI,[48],> 100 µM
same,TGI,[49],> 100 µM
same,TGI,[50],> 100 µM
same,TGI,[51],> 100 µM
same,TGI,[52],> 100 µM
same,TGI,[53],> 100 µM
same,TGI,[54],> 100 µM
same,TGI,[55],> 100 µM
NC(=Nc1ccc(Cl)cc1)c1ccccc1N,TGI,[1],> 100 µM
same,TGI,[2],> 100 µM
same,TGI,[3],> 100 µM
same,TGI,[4],> 100 µM
same,TGI,[5],> 100 µM
same,TGI,[6],> 100 µM
same,TGI,[7],> 100 µM
same,TGI,[8],> 100 µM
same,TGI,[9],> 100 µM
same,TGI,[10],> 100 µM
same,TGI,[11],> 100 µM
same,TGI,[12],> 100 µM
same,TGI,[13],> 100 µM
same,TGI,[14],> 100 µM
same,TGI,[16],> 100 µM
same,TGI,[17],> 100 µM
same,TGI,[18],> 100 µM
same,TGI,[19],> 100 µM
same,TGI,[20],> 100 µM
same,TGI,[22],> 100 µM
same,TGI,[23],> 100 µM
same,TGI,[24],> 100 µM
same,TGI,[56],> 100 µM
same,TGI,[25],> 100 µM
same,TGI,[26],> 100 µM
same,TGI,[27],> 100 µM
same,TGI,[28],> 100 µM
same,TGI,[29],> 100 µM
same,TGI,[30],> 100 µM
same,TGI,[31],> 100 µM
same,TGI,[32],> 100 µM
same,TGI,[33],> 100 µM
same,TGI,[34],> 100 µM
same,TGI,[57],> 100 µM
same,TGI,[35],> 100 µM
same,TGI,[36],> 100 µM
same,TGI,[37],> 100 µM
same,TGI,[38],> 100 µM
same,TGI,[39],> 100 µM
same,TGI,[40],> 100 µM
same,TGI,[58],> 100 µM
same,TGI,[41],> 100 µM
same,TGI,[42],> 100 µM
same,TGI,[43],> 100 µM
same,TGI,[44],> 100 µM
same,TGI,[45],> 100 µM
same,TGI,[46],> 100 µM
same,TGI,[47],> 100 µM
same,TGI,[48],> 100 µM
same,TGI,[49],> 100 µM
same,TGI,[50],> 100 µM
same,TGI,[51],> 100 µM
same,TGI,[52],> 100 µM
same,TGI,[54],> 100 µM
same,TGI,[55],> 100 µM
